# Reference: ChEMBL document CHEMBL4145663, “Sweet Binders: Carbonic Anhydrase IX in Complex with Sucralose” (ACS Med Chem Lett, 2018)
# Tests used:
# Carbonic anhydrase 2 = Carbonic anhydrase 2 (Homo sapiens, UniProt P00918); experiment: Binding affinity to carbonic anhydrase 2 (unknown origin)
# Carbonic anhydrase 9 = Carbonic anhydrase 9 (Homo sapiens, UniProt Q16790); experiment: Binding affinity to carbonic anhydrase 9 (unknown origin) expressed in Escherichia coli BL21 (DE3)
SMILES,Ki (Carbonic anhydrase 2),Ki (Carbonic anhydrase 9)
OC[C@H]1O[C@H](O[C@]2(CCl)O[C@H](CCl)[C@@H](O)[C@@H]2O)[C@H](O)[C@@H](O)[C@H]1Cl [SUCRALOSE],300 nM,2200 nM
OC[C@H]1O[C@@](CO)(O[C@H]2O[C@H](CO)[C@@H](O)[C@H](O)[C@H]2O)[C@@H](O)[C@@H]1O [SUCROSE],> 20000 nM,> 20000 nM
